Values quoted from earlier work, collected in PMC6530907 (Biochemistry, 2019).

Biological target: YbtE
Conditions: cited from earlier work

Nc1ncnc2c1ncn2[C@@H]1O[C@H](COS(=O)(=O)NC(=O)c2ccccc2O)[C@@H](O)[C@H]1O [compound 1, 5´-O-[N-salicylsulfamoyl]adenosine]
Ki: 700 pM
